Test results reported in patent publication EP1092007B1, “A NEW IMPROVED ENZYME CONTAINING GRANULE” (Novozymes A/S, priority 1998, dated 2000).

Test: Measurement of constant humidity values for coating compounds
Assay type: physicochemical
Conditions: 20°C; % RH of air over saturated aqueous solution
Procedure: The term "constant humidity" (in the context of the invention sometimes abbreviated as CH) of a compound or substance is to be understood as the % RH of atmospheric air in equilibrium with a saturated aqueous solution of said compound in contact with the solid phase of said compound, all confined within a closed space at a given temperature. […] Accordingly CH20 °C =50% for a compound means that air with a 50% humidity will be in equilibrium with a saturated aqueous solution of the compound at 20°C. Accordingly the term constant humidity is a measure of the hygroscopic properties of a compound.
The constant humidity of water soluble compound coating materials were measured by preparing a saturated aqueous solution with excess of solid phase of the compound in an open beaker.

SMILES | CH20°C (constant humidity) [%]
N.O=P(O)(O)O [(NH4)H2PO4] | 93.1
O=P([O-])(O)O.[K+] [KH2PO4] | 92
O=S(=O)([O-])O.[K+] [KHSO4] | 86
O=P([O-])([O-])O.[Na+].[Na+] [Na2HPO4] | 95
O=S(=O)([O-])[O-].[Na+].[Na+] [Na2SO4, sodium sulfate] | 93
O=S(=O)([O-])[O-].[Zn+2] [ZnSO4] | 90

Same assay, conditions: 25°C

SMILES | Constant humidities at 25°C
N.N.O=S(=O)(O)O [Ammonium sulfate] | 79
O=S(=O)([O-])[O-].[Na+].[Na+] [Na2SO4, sodium sulfate] | 93
O=C([O-])CC(O)(CC(=O)[O-])C(=O)[O-].[Na+].[Na+].[Na+] [sodium citrate] | 86
O=C[O-].[Na+] [sodium formiate] | 56

Same assay, conditions: 25°C; % RH of air over saturated aqueous solution

SMILES | CH25°C (constant humidity) [%]
O=S(=O)([O-])[O-].[K+].[K+] [Example K2SO4, K2SO4] | 99
O=P([O-])([O-])[O-].[Na+].[Na+].[Na+] [Na3PO4] | 92
O=C([O-])CC(O)(CC(=O)[O-])C(=O)[O-].[Na+].[Na+].[Na+] [sodium citrate] | 86
